Values of other authors, collected in EP1569663B1, “IFOSFAMIDE COMPOSITIONS FOR PARENTERAL ADMINISTRATION AND A PROCESS FOR THEIR PREPARATION” (Bharat Serums & Vaccines Ltd., priority 2002, dated 2004).

Columns and labels:
[1] = in water
mouse = details: intravenous administration

Compound: O=P1(NCCCl)OCCCN1CCCl (centres unmarked) [Ifosfamide, 3-(2-chtoroethyl)-2-[(2-chloroethyl)amino]-tetrahydro-2H-1,3,2-oxazaphosphorin-2-oxide]
- water solubility [1]: about 100 mg/ml
- LD50 (mouse): 338 mg/kg body weight
